Bounds are passed on as bounds.

A short description of this assay: RSV-A Assay : Hep-2 cells, (originally derived from tumors grown in irradiated-cortisonised weanling rats that had been injected with epidermoid carcinoma tissue from a person's larynx, but later found to be indistinguishable from HeLa cells by PCR DNA analysis), were used for the culturing of genotype A, “Long” strain RSV. Flasks were inoculated with RSV and viral stocks were collected once cytopathic effect (CPE) was greater than 90%. Viral stocks in 25% sucrose media were snap frozen using liquid nitrogen to increase viral stability. Viral stock titers were quantified by tissue culture infectious dose 50% (TCID50) using 8,000 cells per well and 3-fold viral dilutions across a 96-well plate, cultured for 4 days. Viral stock titers were also quantified by a plaque forming unit assay, as described elsewhere.Following extensive parameter testing, the final assay is run as follows: Hep-2 cells are seeded into the inner 60 wells of a 96-well plate at 8,000 cells per well in a volume of 50 μL using Growth Media (DMEM without phenol red, 1% L-Glut, 1% Penn/Strep, 1% nonessential amino acids, 10% heat-inactivated FBS). 2-fold serial dilutions of control and test compounds are added to the wells in duplicate in a total volume of 25 μL. Viral stock is then added to the wells at a multiplicity of infection (MOI) of 0.1 in a volume of 25 μL, bringing the total volume of each well to 100 μL. The MOI is calculated using the PFU/mL, or TCID50 if unavailable. Each 96-well plate has a control column of 6 wells with cells and virus but no compound (negative control, max CPE), a column with cells but no compound or virus (positive control, minimum CPE), and a column with no cells or virus or compound (background plate/reagent control). The control wells with cells but no virus are given an additional […], of growth media containing an equal quantity of sucrose as those wells receiving the viral stock in order to keep consistent in media and volume conditions. The outer wells of the plate are filled with 125 μL of moat media (DMEM, 1% Penn/Strep) to act as a thermal and evaporative moat around the test wells. Following a 5-day incubation period, the plates are read using ATPlite (50 uL added per well), which quantifies the amount of ATP (a measure of cell health) present in each well. Assay plates are read using the Envision luminometer.
With `COc1cc(C(=O)NC[C@](O)(c2cc3c(c(-c4ccc(F)cc4)n2)OC[C@@]3(N)C(F)(F)F)C(F)(F)F)ccc1C(F)(F)F`, the EC50 was above 200 nM. To `COc1cc(C(=O)NC[C@](C)(O)c2cc3c(c(-c4ccc(F)c(Cl)c4)n2)OC[C@@]3(N)C(F)(F)F)ccc1OC1CC1` belongs below 200 nM. With `COc1cc(C(=O)NC[C@@](O)(CO)c2cc3c(c(-c4ccc(F)cc4)n2)OC[C@@]3(N)C(F)(F)F)ccc1OC1CC1`, the EC50 is below 200 nM. The same measure for `COCCOc1ccc(C(=O)NC[C@](O)(c2cc3c(c(-c4ccc(F)cc4)n2)OC[C@@]3(N)C(F)(F)F)C(F)(F)F)cc1OC`: above 200 nM; for `C[C@](O)(CNC(=O)c1ccc(OC2CC2)c(OC2CC2)c1)c1cc2c(c(-c3ccc(F)cc3)n1)OC[C@@]2(N)C(F)(F)F`: below 200 nM. To `COc1cc(C(=O)NC[C@](O)(c2cc3c(c(-c4ccc(F)cc4)n2)OC[C@@]3(N)C(F)(F)F)C(F)(F)F)cc2cccnc12` belongs below 200 nM; to `N[C@@]1(C(F)(F)F)COc2c1cc([C@@](O)(CNC(=O)c1cc(OC3CC3)c3ncccc3c1)C1CC1)nc2-c1ccc(F)c(Cl)c1`, below 200 nM. To `COc1cc(C(=O)NC[C@](O)(c2cc3c(c(-c4ccc(F)cc4)n2)OC[C@]3(N)C(F)(F)F)C(F)(F)F)cc2cccnc12` belongs below 200 nM; to `COc1cc(C(=O)NC[C@](C)(O)c2cc3c(c(-c4ccc(F)c(F)c4)n2)OC[C@@]3(N)C(F)(F)F)ccc1OC1CC1`, below 200 nM; to `COc1cc(C(=O)NCC(C)c2cc3c(c(-c4ccc(F)c(F)c4)n2)OC[C@@]3(N)C(F)(F)F)ccc1OC1CC1` (stereo partly specified), above 200 nM. In the case of `COc1cnc(C(=O)NC[C@](O)(c2cc3c(c(-c4ccc(F)cc4)n2)OC[C@@]3(N)C(F)(F)F)C(F)(F)F)cc1OC`, the EC50 is above 200 nM.
